{"source": "paper PMC8639918", "about": "“Mechanism of phosphate sensing and signaling revealed by rice SPX1-PHR2 complex structure” (Nature Communications, 2021)", "format_in_all_cases": "binding", "key": {"SPX1^1–259 [1]": {"target": "T1, SPX1^1–259 (Oryza sativa, UniProt Q69XJ0, K147A)", "T1 construct": "residues 1-259 (C-terminally truncated), N-terminal 10xHis-MsyB tag cut with TEV, E. coli BL21(DE3), monomer", "T1 sequence (Q69XJ0 1-259 K147A)": "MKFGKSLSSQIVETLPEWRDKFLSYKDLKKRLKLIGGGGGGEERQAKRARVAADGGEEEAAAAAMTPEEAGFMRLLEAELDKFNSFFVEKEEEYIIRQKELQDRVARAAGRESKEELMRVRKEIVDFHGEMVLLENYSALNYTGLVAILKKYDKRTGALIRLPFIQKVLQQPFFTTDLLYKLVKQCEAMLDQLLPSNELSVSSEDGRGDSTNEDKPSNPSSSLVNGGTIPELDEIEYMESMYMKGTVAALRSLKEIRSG", "assay": "ITC", "source_text": "ITC on SPX1^1–259 | SPX1 K147A mutation had little effect on InsP6 binding affinity"}, "SPX1^1–259▵N17": {"target": "T2, SPX1^1–259▵N17 (Oryza sativa, UniProt Q69XJ0)", "T2 construct": "SPX1 1-259 without the N-terminal helix alpha1 (deltaN17, residues 1-17 deleted), N-terminal 10xHis-MsyB tag cut with TEV, E. coli BL21(DE3)", "T2 sequence (Q69XJ0 18-259)": "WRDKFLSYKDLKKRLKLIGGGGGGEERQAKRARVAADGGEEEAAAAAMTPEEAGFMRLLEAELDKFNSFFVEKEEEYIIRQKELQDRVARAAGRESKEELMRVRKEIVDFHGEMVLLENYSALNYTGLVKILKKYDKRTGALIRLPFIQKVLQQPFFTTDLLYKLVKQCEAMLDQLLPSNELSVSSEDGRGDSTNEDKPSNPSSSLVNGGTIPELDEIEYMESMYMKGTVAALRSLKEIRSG", "assay": "ITC", "details": "25 °C; 20 mM HEPES/NaOH pH 7.5, 200 mM NaCl, 2 mM beta-mercaptoethanol"}, "SPX1^1–259 [2]": {"target": "T3, SPX1^1–259 (Oryza sativa, UniProt Q69XJ0)", "T3 construct": "residues 1-259 (C-terminally truncated), N-terminal 10xHis-MsyB tag cut with TEV, E. coli BL21(DE3), monomer", "T3 sequence (Q69XJ0 1-259)": "T1 sequence (Q69XJ0 1-259 K147A) with A147K", "assay": "ITC", "details": "25 °C; 20 mM HEPES/NaOH pH 7.5, 200 mM NaCl, 2 mM beta-mercaptoethanol", "source_text": "ITC on SPX1^1–259 | In contrast to the moderate InsP6 binding ability of the wild-type protein"}, "SPX1^1–259 [3]": {"target": "T4, SPX1^1–259 (Oryza sativa, UniProt Q69XJ0, Y25F/K29A/K151A)", "T4 construct": "residues 1-259 (C-terminally truncated), N-terminal 10xHis-MsyB tag cut with TEV, E. coli BL21(DE3), monomer", "T4 sequence (Q69XJ0 1-259 Y25F/K29A/K151A)": "T1 sequence (Q69XJ0 1-259 K147A) with Y25F, K29A, A147K, K151A", "assay": "ITC", "details": "25 °C; 20 mM HEPES/NaOH pH 7.5, 200 mM NaCl, 2 mM beta-mercaptoethanol"}, "SPX1^1–259 [4]": {"target": "T3, SPX1^1–259", "assay": "thermal shift assay (SYPRO Orange)", "details": "20 mM HEPES/NaOH pH 7.5, 200 mM NaCl; InsP6 0 to 250 μM"}, "InsP6-SPX1-PHR2 complex": {"target": "T5, InsP6-SPX1-PHR2 complex (Oryza sativa, UniProt Q69XJ0)", "T5 construct": "SPX1 1-198 with T4 lysozyme fused to its C-terminus (crystallisation aid) plus Se-Met PHR2 248-380 (MYB and CC domains), tags cut with TEV, E. coli BL21(DE3), 1:1 heterodimer; with Protein PHOSPHATE STARVATION RESPONSE 2", "T5 sequence (Q69XJ0 1-198)": "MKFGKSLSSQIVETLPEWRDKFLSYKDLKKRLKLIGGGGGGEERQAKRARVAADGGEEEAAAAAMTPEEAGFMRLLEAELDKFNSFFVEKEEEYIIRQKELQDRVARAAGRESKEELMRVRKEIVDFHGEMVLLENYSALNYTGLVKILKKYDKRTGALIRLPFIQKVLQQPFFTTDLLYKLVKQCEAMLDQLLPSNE", "T5 sequence (Q6Z156 with tags, fused parts or gaps V263M/L278M/L295M/L340M partner)": "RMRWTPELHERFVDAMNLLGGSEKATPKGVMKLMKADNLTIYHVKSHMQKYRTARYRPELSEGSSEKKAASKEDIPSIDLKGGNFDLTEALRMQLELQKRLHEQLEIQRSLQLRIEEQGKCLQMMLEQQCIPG", "assay": "X-ray crystal structure, […] Å", "details": "basic groove between SPX1 helices α1, α2 and α4; allosteric"}}, "note": "Positions count from the first letter of the chain named."}
{"compound": "O=P(O)(O)O[C@H]1[C@H](OP(=O)(O)O)[C@@H](OP(=O)(O)O)[C@H](OP(=O)(O)O)[C@@H](OP(=O)(O)O)[C@H]1OP(=O)(O)O", "note": "[InsP6]", "values": [{"measurement": "Kd", "setting": "SPX1^1–259 [1]", "result": "5.69 ± 1.46", "unit": "µM"}, {"measurement": "Kd", "setting": "SPX1^1–259▵N17", "result": "34.1 ± 1.95", "unit": "µM"}, {"measurement": "Kd", "setting": "SPX1^1–259 [2]", "result": "5.5 ± 0.93", "unit": "µM"}, {"measurement": "Kd", "setting": "SPX1^1–259 [3]", "result": "the SPX1 mutant lost its InsP6-binding activity"}, {"measurement": "Tm", "setting": "SPX1^1–259 [4]", "result": "InsP6 could increase the melting temperature (Tm) of SPX1 greatly"}, {"measurement": "X-ray crystal structure, 2.6 Å", "setting": "InsP6-SPX1-PHR2 complex", "result": "each captured by an SPX1 molecule via a highly basic surface groove"}]}
